Experiments:
HL-60 cells = test: Loss of mitochondrial membrane potential (Rh-123 uptake); assay type: cell-based, human; settings: 1 μM, 48 h
Method: Rhodamine-123 uptake into mitochondria is driven by mitochondrial Transmembrane potential (Ψmt) that allows the determination of cell population with active integrated mitochondrial functions. Loss of Ψmt leads to depolarization of mitochondrial membranes leading to collapse of mitochondrial functions ensuing cell death. The loss of Ψmt indicated the loss of mitochondrial integrity to couple electrons to energy production. HL-60 cells exposed to tested compounds for 48 h at 1 μM were analyzed for Rh-123 uptake by flow cytometry. The percentage of cells with low Rh-123 quantum fluorescence indicative of loss of Ψmt was calculated among the total acquired cell events (10,000). In the untreated control cells, more than 90% cells were functionally active with high Rh-123 signals (FIG. 9).

UACC-257 = test: NCI SRB GI50 screen; assay type: cell-based; settings: Homo sapiens, Melanoma, 48 hrs exposure, read-out: Growth Inhibition GI50 UACC-257
Method: (§1) 2-Anilino nicotinyl linked 2-amino benzothiazole conjugates of formula 9-12 were tested against fifty nine human cancer cell lines derived from nine cancer types (leukemia, non-small cell lung cancer, colon cancer, CNS cancer, melanoma, ovarian cancer, renal cancer, prostate cancer and breast cancer) as per NCI protocol. For each compound, dose response curves for individual cell lines were measured at a minimum of five concentrations at 10 fold dilutions. A protocol of 48 hrs continuous drug exposure was used, and a sulforhodamine B (SRB) protein assay was used to estimate cell viability or growth.

IGROV1 = test: NCI SRB GI50 screen; assay type: cell-based; settings: Homo sapiens, IGROV-1; Ovarian, 48 hrs exposure; read-out: Growth Inhibition GI50 IGROV1
Method: as §1

SK-MEL-28 = test: NCI SRB GI50 screen; assay type: cell-based; settings: Homo sapiens, Melanoma, 48 hrs exposure, read-out: Growth Inhibition GI50 SK-MEL-28
Method: as §1

MDA-MB-231/ATCC = test: NCI SRB GI50 screen; assay type: cell-based; settings: Homo sapiens, Breast, 48 hrs exposure, read-out: Growth Inhibition GI50 MDA-MB-231/ATCC
Method: as §1

HCT-15 = test: NCI SRB GI50 screen; assay type: cell-based; settings: Homo sapiens, Colon, 48 hrs exposure, read-out: Growth Inhibition GI50 HCT-15
Method: as §1

CAKI-1 = test: NCI SRB GI50 screen; assay type: cell-based; settings: Homo sapiens, Renal, 48 hrs exposure, read-out: Growth Inhibition GI50 CAKI-1
Method: as §1

A498 = test: NCI SRB GI50 screen; assay type: cell-based; settings: Homo sapiens, Renal, 48 hrs exposure, read-out: Growth Inhibition GI50 A498
Method: as §1

UO-31 = test: NCI SRB GI50 screen; assay type: cell-based; settings: Homo sapiens, Renal, 48 hrs exposure, read-out: Growth Inhibition GI50 UO-31
Method: as §1

BT-549 = test: NCI SRB GI50 screen; assay type: cell-based; settings: Homo sapiens, Breast, 48 hrs exposure, read-out: Growth Inhibition GI50 BT-549
Method: as §1

NCI-H522 = test: NCI SRB GI50 screen; assay type: cell-based; settings: Homo sapiens, Non-small lung, 48 hrs exposure, read-out: Growth Inhibition GI50 NCI-H522
Method: as §1

KM12 = test: NCI SRB GI50 screen; assay type: cell-based; settings: Homo sapiens, Colon, 48 hrs exposure, read-out: Growth Inhibition GI50 KM12
Method: as §1

MCF7 = test: NCI SRB GI50 screen; assay type: cell-based; settings: Homo sapiens, Breast, 48 hrs exposure, read-out: Growth Inhibition GI50 MCF7
Method: as §1

HS 578T = test: NCI SRB GI50 screen; assay type: cell-based; settings: Homo sapiens, Breast, 48 hrs exposure, read-out: Growth Inhibition GI50 HS 578T
Method: as §1

HCT-116 = test: NCI SRB GI50 screen; assay type: cell-based; settings: Homo sapiens, Colon, 48 hrs exposure, read-out: Growth Inhibition GI50 HCT-116
Method: as §1

UACC-62 = test: NCI SRB GI50 screen; assay type: cell-based; settings: Homo sapiens, Melanoma, 48 hrs exposure, read-out: Growth Inhibition GI50 UACC-62
Method: as §1

ACHN = test: NCI SRB GI50 screen; assay type: cell-based; settings: Homo sapiens, Renal, 48 hrs exposure, read-out: Growth Inhibition GI50 ACHN
Method: as §1

SNB-19 = test: NCI SRB GI50 screen; assay type: cell-based; settings: Homo sapiens, CNS, 48 hrs exposure, read-out: Growth Inhibition GI50 SNB-19
Method: as §1

EKVX = test: NCI SRB GI50 screen; assay type: cell-based; settings: Homo sapiens, Non-small lung, 48 hrs exposure, read-out: Growth Inhibition GI50 EKVX
Method: as §1

HCC-2998 = test: NCI SRB GI50 screen; assay type: cell-based; settings: Homo sapiens, Colon, 48 hrs exposure, read-out: Growth Inhibition GI50 HCC-2998
Method: as §1

DU-145 = test: NCI SRB GI50 screen; assay type: cell-based; settings: Homo sapiens, Prostate, 48 hrs exposure, read-out: Growth Inhibition GI50 DU-145
Method: as §1

OVCAR-8 = test: NCI SRB GI50 screen; assay type: cell-based; settings: Homo sapiens, Ovarian, 48 hrs exposure, read-out: Growth Inhibition GI50 OVCAR-8
Method: as §1

CCRF-CEM = test: NCI SRB GI50 screen; assay type: cell-based; settings: Homo sapiens, Leukemia, 48 hrs exposure, read-out: Growth Inhibition GI50 CCRF-CEM
Method: as §1

HT29 = test: NCI SRB GI50 screen; assay type: cell-based; settings: Homo sapiens, HT-29; Colon, 48 hrs exposure; read-out: Growth Inhibition GI50 HT29
Method: as §1

NCI/ADR-RES = test: NCI SRB GI50 screen; assay type: cell-based; settings: Homo sapiens, Ovarian, 48 hrs exposure, read-out: Growth Inhibition GI50 NCI/ADR-RES
Method: as §1

HL-60(TB) = test: NCI SRB GI50 screen; assay type: cell-based; settings: Homo sapiens, Leukemia, 48 hrs exposure, read-out: Growth Inhibition GI50 HL-60(TB)
Method: as §1

SK-MEL-5 = test: NCI SRB GI50 screen; assay type: cell-based; settings: Homo sapiens, Melanoma, 48 hrs exposure, read-out: Growth Inhibition GI50 SK-MEL-5
Method: as §1

Sw-620 = test: NCI SRB GI50 screen; assay type: cell-based; settings: Homo sapiens, Colon, 48 hrs exposure, read-out: Growth Inhibition GI50 SW-620
Method: as §1

Structure (SMILES) | melting point | GI50 (IGROV1) [µM] | GI50 (SK-MEL-28) [µM] | GI50 (MDA-MB-231/ATCC) [µM] | GI50 (HCT-15) [µM] | GI50 (CAKI-1) [µM] | GI50 (A498) [µM] | GI50 (UO-31) [µM] | GI50 (BT-549) [µM] | GI50 (NCI-H522) [µM] | GI50 (KM12) [µM] | GI50 (MCF7) [µM] | GI50 (HS 578T) [µM] | GI50 (HCT-116) [µM] | GI50 (UACC-62) [µM] | GI50 (ACHN) [µM] | GI50 (SNB-19) [µM] | GI50 (EKVX) [µM] | GI50 (HCC-2998) [µM] | GI50 (DU-145) [µM] | also measured
O=C(Nc1nc2ccc([N+](=O)[O-])cc2s1)c1cccnc1Nc1cc(F)c(F)c(F)c1 [Compound 8, N3-(6-nitro-1,3-benzothiazol-2-yl)-2-[(3,4,5-trifluorophenyl)amino]-3-pyridine carboxamide] | – | – | – | – | – | – | – | – | – | – | – | – | – | – | – | – | – | – | – | – | loss of mitochondrial membrane potential (HL-60 cells): 45%
O=C(Nc1nc2ccc(F)cc2s1)c1cccnc1Nc1ccc(Cl)cc1 [Compound 9, N3-(6-fluoro-1,3-benzothiazol-2-yl)-2-(4-chloroanilino)nicotinamide] | 254 to 257 °C | 2 | 3.51 | 1.85 | 3.32 | 2.89 | 1.92 | 1.94 | 2.05 | 1.02 | 2.61 | 2.38 | 1.99 | 1.67 | 1.94 | 3.08 | 3.65 | 1.94 | 2.75 | 3.67 | GI50 (UACC-257): 0.164 µM; GI50 (OVCAR-8): 2.24 µM; GI50 (CCRF-CEM): 1.06 µM; GI50 (HT29): 2.86 µM; GI50 (NCI/ADR-RES): 2.09 µM; GI50 (HL-60(TB)): 1.74 µM; GI50 (SK-MEL-5): 1.11 µM; GI50 (Sw-620): 1.02 µM
O=C(Nc1nc2ccc(F)cc2s1)c1cccnc1Nc1ccc(Cl)cc1Cl [Compound 10, N3-(6-fluoro-1,3-benzothiazol-2-yl)-2-(2,4-dichloroanilino)nicotinamide] | 208 to 210 °C | 1.82 | 4.09 | 3.41 | 3.74 | 1.5 | 2.83 | 1.1 | 3.01 | 1.48 | 2.9 | 3.07 | 3.25 | 2.19 | 2.12 | 3.72 | 3.66 | 2.07 | 3.54 | 3.53 | GI50 (UACC-257): 0.17 µM; GI50 (OVCAR-8): 2.78 µM; GI50 (CCRF-CEM): 1.85 µM; GI50 (HT29): 2.98 µM; GI50 (NCI/ADR-RES): 2.51 µM; GI50 (HL-60(TB)): 1.83 µM; GI50 (SK-MEL-5): 1.71 µM; GI50 (Sw-620): 3.4 µM
COc1cc(Nc2ncccc2C(=O)Nc2nc3ccc(F)cc3s2)cc(OC)c1OC [Compound 11, N3-(6-fluoro-1,3-benzothiazol-2-yl)-2-(3,4,5-trimethoxyanilino)nicotinamide] | 214 to 216 °C | 1.77 | 4.33 | 4.61 | 4.38 | 3.15 | 3.45 | 3.37 | 2.63 | 1.55 | 3.79 | 3.23 | 2.57 | 3.49 | 1.71 | 4.82 | 3.49 | 2.7 | 2.94 | 5.5 | GI50 (OVCAR-8): 3.62 µM; GI50 (CCRF-CEM): 3.26 µM; GI50 (HT29): 5.15 µM; GI50 (NCI/ADR-RES): 2.92 µM; GI50 (HL-60(TB)): 1.86 µM; GI50 (SK-MEL-5): 1.63 µM
COc1ccc2nc(NC(=O)c3cccnc3Nc3cc(OC)c(OC)c(OC)c3)sc2c1 [Compound 12, N-3-(6-methoxy-1,3-benzothiazol-2-yl)-2-(3,4,5-trimethoxyanilino) nicotinamide] | 121 to 125 °C (dec.) | 13.2 | 7.88 | 5.62 | 11.2 | 16.4 | 2.19 | 9.3 | 11.6 | 2.6 | 4.51 | 0.51 | 5.77 | 4.5 | 8.45 | 6.47 | 15 | 11.5 | 17 | 14.6 | GI50 (UACC-257): 8.45 µM; GI50 (OVCAR-8): 6.52 µM; GI50 (CCRF-CEM): 20.1 µM; GI50 (HT29): 17.7 µM; GI50 (NCI/ADR-RES): 8.97 µM; GI50 (HL-60(TB)): 32.3 µM; GI50 (SK-MEL-5): 11.3 µM; GI50 (Sw-620): 11.8 µM
